Remaining binding data for three molecules are collected here from patent publication US12479847B2 (DANA-FARBER CANCER INSTITUTE, INC., priority 2019, dated 2025).

Test in all cases: KINOMEscan (ScanMAX) kinase profiling
Common to all, as to format: binding

Assay [1] addresses T1, panel of 468 kinases (Homo sapiens, UniProt P42336, E545A).
T1 construct: purchased KINOMEscan (ScanMAX) service
Particulars: PIK3CA(E545A); 1 μM; read-out: % control.

The target in assay [2] is T2, panel of 468 kinases (Homo sapiens, UniProt Q15835).
T2 construct: purchased KINOMEscan (ScanMAX) service
T2 sequence (Q15835 1-563): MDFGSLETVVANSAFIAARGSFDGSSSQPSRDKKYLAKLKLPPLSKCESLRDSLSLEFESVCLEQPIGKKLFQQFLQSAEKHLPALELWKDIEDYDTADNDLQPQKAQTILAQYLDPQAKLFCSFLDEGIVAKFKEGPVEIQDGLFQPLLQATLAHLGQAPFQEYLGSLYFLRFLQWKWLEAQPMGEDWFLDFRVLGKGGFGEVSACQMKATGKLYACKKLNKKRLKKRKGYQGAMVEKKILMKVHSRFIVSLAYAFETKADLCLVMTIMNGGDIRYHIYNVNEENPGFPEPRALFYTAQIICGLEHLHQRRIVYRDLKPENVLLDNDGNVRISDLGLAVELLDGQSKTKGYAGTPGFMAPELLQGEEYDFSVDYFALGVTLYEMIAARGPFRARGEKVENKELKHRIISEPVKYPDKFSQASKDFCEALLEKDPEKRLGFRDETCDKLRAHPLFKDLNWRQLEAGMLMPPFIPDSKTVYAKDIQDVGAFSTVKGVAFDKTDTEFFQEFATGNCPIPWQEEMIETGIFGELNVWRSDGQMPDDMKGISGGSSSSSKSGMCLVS
Particulars: GRK1; 1 μM; read-out: % control.

The target in assay [3] is T3, panel of 468 kinases (Homo sapiens, UniProt Q96BR1).
T3 construct: purchased KINOMEscan (ScanMAX) service
T3 sequence (Q96BR1 1-496): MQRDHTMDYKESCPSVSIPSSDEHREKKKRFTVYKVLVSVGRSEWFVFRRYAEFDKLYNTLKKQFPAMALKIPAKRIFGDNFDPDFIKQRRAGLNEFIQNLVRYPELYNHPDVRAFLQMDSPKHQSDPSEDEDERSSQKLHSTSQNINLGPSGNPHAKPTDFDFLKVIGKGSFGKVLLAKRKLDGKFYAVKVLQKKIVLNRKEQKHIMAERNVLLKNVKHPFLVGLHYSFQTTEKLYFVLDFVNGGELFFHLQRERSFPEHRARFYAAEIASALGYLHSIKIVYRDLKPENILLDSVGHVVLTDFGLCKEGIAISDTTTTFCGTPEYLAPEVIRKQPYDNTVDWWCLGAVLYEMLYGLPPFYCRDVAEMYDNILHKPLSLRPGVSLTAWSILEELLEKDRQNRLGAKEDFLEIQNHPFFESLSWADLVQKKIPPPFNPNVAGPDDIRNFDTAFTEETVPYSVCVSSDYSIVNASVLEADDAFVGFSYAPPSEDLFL
Particulars: SGK3; 1 μM; read-out: % control.

Assay [4] deals with T4, panel of 468 kinases (Homo sapiens, UniProt P10721, D816H).
T4 construct: purchased KINOMEscan (ScanMAX) service
T4 sequence (P10721 26-976 D816H): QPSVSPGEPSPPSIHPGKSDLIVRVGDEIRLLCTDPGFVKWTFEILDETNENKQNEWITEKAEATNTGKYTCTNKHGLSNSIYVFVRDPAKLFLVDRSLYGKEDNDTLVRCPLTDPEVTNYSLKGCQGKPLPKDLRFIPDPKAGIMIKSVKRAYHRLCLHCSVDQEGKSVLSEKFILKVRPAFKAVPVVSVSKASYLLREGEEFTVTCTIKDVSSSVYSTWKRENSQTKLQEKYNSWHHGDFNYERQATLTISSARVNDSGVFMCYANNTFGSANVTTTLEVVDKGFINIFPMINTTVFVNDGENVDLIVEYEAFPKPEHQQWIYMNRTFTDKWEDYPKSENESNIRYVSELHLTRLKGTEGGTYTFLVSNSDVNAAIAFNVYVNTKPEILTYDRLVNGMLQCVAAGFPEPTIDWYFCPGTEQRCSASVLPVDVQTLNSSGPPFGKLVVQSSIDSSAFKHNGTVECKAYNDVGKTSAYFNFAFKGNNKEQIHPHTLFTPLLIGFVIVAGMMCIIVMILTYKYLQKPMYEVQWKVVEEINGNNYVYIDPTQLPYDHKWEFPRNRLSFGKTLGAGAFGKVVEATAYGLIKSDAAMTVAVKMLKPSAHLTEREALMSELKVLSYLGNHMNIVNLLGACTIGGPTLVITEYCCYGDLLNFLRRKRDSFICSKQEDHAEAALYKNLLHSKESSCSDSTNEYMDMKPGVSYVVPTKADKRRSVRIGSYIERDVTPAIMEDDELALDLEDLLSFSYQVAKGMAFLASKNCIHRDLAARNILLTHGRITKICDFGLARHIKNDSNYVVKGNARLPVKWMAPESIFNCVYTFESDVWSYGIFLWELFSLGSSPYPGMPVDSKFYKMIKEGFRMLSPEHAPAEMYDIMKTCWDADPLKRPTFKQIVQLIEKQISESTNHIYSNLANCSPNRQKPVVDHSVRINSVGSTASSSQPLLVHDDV
Particulars: KIT(D816H); 1 μM; read-out: % control.

Assay [5] concerns the target T5, panel of 468 kinases (Homo sapiens, UniProt P21709).
T5 construct: purchased KINOMEscan (ScanMAX) service
T5 sequence (P21709 26-976): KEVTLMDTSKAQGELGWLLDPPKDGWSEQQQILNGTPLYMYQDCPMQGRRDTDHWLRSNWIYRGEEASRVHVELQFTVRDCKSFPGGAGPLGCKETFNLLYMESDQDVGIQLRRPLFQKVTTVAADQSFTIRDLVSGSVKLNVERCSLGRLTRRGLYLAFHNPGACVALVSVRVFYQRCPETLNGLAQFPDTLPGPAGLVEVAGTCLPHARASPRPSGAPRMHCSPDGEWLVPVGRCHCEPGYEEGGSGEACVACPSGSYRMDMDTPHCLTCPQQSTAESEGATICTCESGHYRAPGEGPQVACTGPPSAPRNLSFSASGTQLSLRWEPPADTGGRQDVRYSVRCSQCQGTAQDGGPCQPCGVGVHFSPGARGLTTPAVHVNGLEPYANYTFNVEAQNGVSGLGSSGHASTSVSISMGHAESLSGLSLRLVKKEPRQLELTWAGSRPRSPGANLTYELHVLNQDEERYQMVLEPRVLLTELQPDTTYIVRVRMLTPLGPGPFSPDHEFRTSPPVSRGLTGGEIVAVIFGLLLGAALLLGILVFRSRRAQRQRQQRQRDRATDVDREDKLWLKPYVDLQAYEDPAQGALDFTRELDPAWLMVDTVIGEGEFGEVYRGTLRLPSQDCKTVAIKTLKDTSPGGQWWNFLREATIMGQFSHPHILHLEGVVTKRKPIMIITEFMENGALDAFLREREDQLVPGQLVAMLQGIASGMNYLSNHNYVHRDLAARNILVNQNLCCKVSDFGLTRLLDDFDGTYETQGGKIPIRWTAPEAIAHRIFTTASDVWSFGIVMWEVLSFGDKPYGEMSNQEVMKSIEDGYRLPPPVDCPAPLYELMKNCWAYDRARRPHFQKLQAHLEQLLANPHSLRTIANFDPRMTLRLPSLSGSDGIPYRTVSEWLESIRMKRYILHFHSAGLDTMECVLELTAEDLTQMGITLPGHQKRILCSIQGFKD
Particulars: EPHA1; 1 μM; read-out: % control.

Assay [6] has as its target T6, panel of 468 kinases (Homo sapiens, UniProt P68400).
T6 construct: purchased KINOMEscan (ScanMAX) service
Particulars: CSNK2A1; 1 μM; read-out: % control.

Assay [7] has as its target T7, panel of 468 kinases (Homo sapiens, UniProt Q6DT37).
T7 construct: purchased KINOMEscan (ScanMAX) service
Particulars: DMPK2; 1 μM; read-out: % control.

Assay [8] concerns the target T8, panel of 468 kinases (Homo sapiens, UniProt Q9P1W9).
T8 construct: purchased KINOMEscan (ScanMAX) service
Particulars: PIM2; 1 μM; read-out: % control.

In assay [9] the target is T9, panel of 468 kinases (Homo sapiens, UniProt P00519, M351T).
T9 construct: purchased KINOMEscan (ScanMAX) service
Particulars: ABL1(M351T)-phosphorylated; 1 μM; read-out: % control.

T1 sequence (P42336 whole entry E545A): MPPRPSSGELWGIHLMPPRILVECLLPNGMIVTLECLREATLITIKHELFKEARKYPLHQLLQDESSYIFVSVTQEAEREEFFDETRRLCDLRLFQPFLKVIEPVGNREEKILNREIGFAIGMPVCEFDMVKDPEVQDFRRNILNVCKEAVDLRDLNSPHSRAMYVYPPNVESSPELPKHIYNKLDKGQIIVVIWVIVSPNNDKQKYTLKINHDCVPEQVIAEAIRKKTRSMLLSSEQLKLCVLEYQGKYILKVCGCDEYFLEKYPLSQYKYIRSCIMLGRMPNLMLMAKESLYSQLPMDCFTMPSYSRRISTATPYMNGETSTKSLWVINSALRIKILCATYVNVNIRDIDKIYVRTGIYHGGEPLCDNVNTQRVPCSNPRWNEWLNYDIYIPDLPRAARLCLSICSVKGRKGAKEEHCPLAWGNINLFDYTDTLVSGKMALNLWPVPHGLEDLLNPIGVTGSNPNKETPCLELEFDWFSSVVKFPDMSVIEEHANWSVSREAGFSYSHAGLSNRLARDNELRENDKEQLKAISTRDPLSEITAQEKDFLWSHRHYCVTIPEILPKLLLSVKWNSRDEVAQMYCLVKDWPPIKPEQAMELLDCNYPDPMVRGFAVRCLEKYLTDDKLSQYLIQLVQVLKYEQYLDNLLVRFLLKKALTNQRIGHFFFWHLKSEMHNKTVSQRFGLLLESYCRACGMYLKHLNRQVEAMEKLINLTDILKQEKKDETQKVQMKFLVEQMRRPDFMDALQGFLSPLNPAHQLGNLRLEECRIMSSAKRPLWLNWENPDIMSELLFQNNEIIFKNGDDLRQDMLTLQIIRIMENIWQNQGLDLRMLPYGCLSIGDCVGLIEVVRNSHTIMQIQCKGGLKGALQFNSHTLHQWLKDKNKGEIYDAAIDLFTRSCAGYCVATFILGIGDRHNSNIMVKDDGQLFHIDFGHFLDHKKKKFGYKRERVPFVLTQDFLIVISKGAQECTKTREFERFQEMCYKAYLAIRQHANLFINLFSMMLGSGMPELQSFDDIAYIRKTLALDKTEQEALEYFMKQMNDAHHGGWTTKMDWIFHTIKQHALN
T8 sequence (Q9P1W9 whole entry): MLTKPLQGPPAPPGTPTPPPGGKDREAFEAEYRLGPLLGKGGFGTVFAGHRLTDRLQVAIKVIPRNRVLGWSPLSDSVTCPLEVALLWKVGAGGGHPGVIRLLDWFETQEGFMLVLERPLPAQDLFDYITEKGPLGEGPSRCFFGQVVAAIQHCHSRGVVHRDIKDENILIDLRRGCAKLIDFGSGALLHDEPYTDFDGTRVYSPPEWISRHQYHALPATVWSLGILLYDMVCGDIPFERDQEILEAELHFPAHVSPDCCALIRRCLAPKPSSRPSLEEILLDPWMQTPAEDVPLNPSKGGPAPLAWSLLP
T6 sequence (P68400 whole entry): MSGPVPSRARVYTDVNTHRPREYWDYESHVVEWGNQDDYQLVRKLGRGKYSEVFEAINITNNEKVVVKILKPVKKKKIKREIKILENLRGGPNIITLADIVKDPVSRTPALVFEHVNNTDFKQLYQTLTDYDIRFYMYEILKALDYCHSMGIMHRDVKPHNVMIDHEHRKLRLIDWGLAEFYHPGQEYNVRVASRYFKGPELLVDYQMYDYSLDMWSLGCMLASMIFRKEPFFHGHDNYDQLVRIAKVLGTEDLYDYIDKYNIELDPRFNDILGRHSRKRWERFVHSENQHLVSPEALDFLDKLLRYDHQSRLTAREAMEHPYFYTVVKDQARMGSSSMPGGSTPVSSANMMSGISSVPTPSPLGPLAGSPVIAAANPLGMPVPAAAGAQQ
T7 sequence (Q6DT37 whole entry): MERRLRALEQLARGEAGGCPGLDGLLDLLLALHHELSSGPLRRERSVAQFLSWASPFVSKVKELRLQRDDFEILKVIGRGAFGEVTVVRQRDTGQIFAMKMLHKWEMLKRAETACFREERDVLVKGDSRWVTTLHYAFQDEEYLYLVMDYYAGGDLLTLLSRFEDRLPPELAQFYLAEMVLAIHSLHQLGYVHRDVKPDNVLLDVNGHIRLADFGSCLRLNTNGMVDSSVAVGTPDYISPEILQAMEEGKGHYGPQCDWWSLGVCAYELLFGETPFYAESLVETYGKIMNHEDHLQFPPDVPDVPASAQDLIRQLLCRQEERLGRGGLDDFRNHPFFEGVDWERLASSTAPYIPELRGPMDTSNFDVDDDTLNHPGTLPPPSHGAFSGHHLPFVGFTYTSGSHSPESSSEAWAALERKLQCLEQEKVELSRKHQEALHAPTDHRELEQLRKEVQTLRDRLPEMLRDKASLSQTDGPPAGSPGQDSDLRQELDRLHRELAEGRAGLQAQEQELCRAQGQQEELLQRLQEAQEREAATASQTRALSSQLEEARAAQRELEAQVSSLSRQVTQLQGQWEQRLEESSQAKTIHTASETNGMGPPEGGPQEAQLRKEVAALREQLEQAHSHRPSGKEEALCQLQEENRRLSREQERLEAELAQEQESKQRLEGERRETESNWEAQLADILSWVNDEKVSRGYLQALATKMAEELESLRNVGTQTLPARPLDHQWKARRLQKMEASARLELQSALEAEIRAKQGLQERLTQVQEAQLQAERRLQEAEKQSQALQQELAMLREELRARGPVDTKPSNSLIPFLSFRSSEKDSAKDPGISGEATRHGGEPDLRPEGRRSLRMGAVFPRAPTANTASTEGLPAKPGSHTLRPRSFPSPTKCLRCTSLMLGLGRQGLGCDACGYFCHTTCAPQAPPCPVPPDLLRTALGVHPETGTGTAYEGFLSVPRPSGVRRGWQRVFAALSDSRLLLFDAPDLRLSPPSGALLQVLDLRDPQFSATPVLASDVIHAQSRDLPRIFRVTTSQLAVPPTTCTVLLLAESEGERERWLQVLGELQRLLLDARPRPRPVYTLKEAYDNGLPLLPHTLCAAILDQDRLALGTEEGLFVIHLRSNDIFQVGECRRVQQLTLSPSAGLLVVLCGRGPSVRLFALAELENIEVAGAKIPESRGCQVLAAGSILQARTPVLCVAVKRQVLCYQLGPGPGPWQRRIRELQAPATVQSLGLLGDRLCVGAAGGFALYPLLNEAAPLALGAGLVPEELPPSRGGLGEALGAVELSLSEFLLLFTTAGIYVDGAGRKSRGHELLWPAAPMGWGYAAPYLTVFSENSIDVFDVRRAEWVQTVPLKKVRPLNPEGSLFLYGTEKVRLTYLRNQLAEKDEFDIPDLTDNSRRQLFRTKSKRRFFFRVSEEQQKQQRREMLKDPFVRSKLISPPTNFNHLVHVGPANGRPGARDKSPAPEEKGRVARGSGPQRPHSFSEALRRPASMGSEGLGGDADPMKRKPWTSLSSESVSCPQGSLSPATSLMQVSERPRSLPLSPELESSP

With `CNc1nc(Nc2ccc(C(=O)N3CCC(N4CCOCC4)CC3)c3c2OCO3)nc2[nH]cc(Cl)c12` [Compound 75, (7-((5-chloro-4-(methylamino)-7H-pyrrolo[2,3-d]pyrimidin-2-yl)amino)benzo[d][1,3]dioxol-4-yl)(4-morpholinopiperidin-1-yl)methanone], the remaining binding at 1 µM in assay [1] amounted to 100%; in assay [2], 88%; in assay [3] it was 32%; in assay [4], 99%; in assay [5] it was 100%; in assay [6] it was 24%. Further, the values for the remaining binding at 1 µM in assay [7], in assay [8] and in assay [9] were 100%, 100% and 59%, respectively.
Turning to `CNc1nc(Nc2ccc(P3(=O)CCN(C4CCOCC4)CC3)cc2OC)nc2[nH]cc(Cl)c12` [Compound 77, 4-(4-((5-chloro-4-(methylamino)-7H-pyrrolo[2,3-d]pyrimidin-2-yl)amino)-3-methoxyphenyl)-1-(tetrahydro-2H-pyran-4-yl)-1,4-azaphosphinane 4-oxide], the remaining binding at 1 µM is 100% in assay [1]; 88% in assay [2]; 78% in assay [3]; 93% in assay [4]; 100% in assay [5]; 59% in assay [6]. Moreover, the figures for the remaining binding at 1 µM in assay [7], in assay [8] and in [9] were 94%, 100% and 70%, respectively.
Consider `CNc1nc(Nc2ccc(S(=O)(=O)N3CCC(N4CCOCC4)CC3)cc2OC)nc2[nH]cc(Cl)c12` [Compound 12, 5-chloro-N2-(2-methoxy-4-((4-morpholinopiperidin-1-yl)sulfonyl)phenyl)-N4-methyl-7H-pyrrolo[2,3-d]pyrimidine-2,4-diamine], for which the remaining binding at 1 µM is 100% in assay [1]; 79% in [2]; 76% in [3]; 100% in assay [4]; 100% in assay [5]; 63% in assay [6]. Besides, the results for the remaining binding at 1 µM in [7], in assay [8] and in assay [9] were 100%, 99% and 64%, respectively.
